Results taken from publication PMC7310027, “PET imaging of soluble epoxide hydrolase in non-human primate brain with [^18F]FNDP” (EJNMMI Research, 2020).

Tests used:
[1] = Murine radiometabolite analysis (blood and brain) by RP-HPLC; format: in vivo, CD-1 mice
Experimental: Male CD-1 mice (25–26 g) were injected via the lateral tail vein with 37 MBq of high specific activity (1.1 TBq/μmol or 29.7 Ci/μmol) [^18F]FNDP. The mice were sacrificed by cervical dislocation at 10 and 30 min after injection, and a terminal blood sample was obtained. The mouse brains were rapidly removed, homogenized in 2 mL of ACN:H2O 50%–50% (vol) with 0.06 M ammonium formate to extract parent tracer and radiometabolites, centrifuged at 20,000 g at 4 °C. Resulting supernatants were analyzed by reverse-phase (RP)-HPLC.

[2] = Baboon plasma radiometabolite analysis by HPLC; format: in vivo, baboon (Papio anubis)
Experimental: Measurement of the arterial plasma input function was conducted through collection of ~ 40 blood samples over the course of the 90-min dynamic PET study. […] Samples were then centrifuged at 1200 × g, and the plasma radioactivity was measured with a cross-calibrated PerkinElmer Wizard 2480 automatic gamma counter.
Select plasma samples (0, 5, 10, 20, 30, 60, and 90 min) were analyzed for radiometabolites using high-performance liquid chromatography (HPLC). The modified column-switching HPLC method was used. The HPLC system consisting of a 1260 infinity quaternary pump, a 1260 infinity column compartment module, a 1260 infinity UV detector, and a Raytest GABI Star radiation detector, was operated with OpenLab CDS EZChrom (A.01.04) software. […] After 1 min of isocratic elution, analytical mobile phase composed of 65% acetonitrile and 35% water with 0.06 M trimethylamine (at pH = 7.2, adjusted with phosphoric acid) was applied to direct non-polar compounds trapped on the capture column to an analytical column (Gemini C18(2), 10 μm, 4.6 × 250 mm) and detectors at 2 mL/min. The HPLC system was standardized for mass using non-radioactive FNDP prior to analysis of the blood plasma samples, which were spiked with 5 μL of non-radioactive FNDP at a concentration of 1 mg/mL.

[3] = tested on: soluble epoxide hydrolase (sEH); assay: Baboon [^18F]FNDP PET, dose-escalation blocking with AR-9281 (Lassen plot, occupancy); format: in vivo, baboon (Papio anubis)
Experimental: PET images were acquired using a CPS/CTI high-resolution research tomograph (HRRT), which has an axial resolution (FWHM) of 2.4 mm and in-plane resolution of 2.4–2.8 mm. […] These blocking studies were performed 27 to 43 days apart from each other to ensure full animal recovery. The animals had no food for 12 h prior to each PET study. Anesthesia was induced with intramuscular ketamine (7.5–10 mg/kg) and maintained with a continuous intravenous infusion of propofol at 0.3–0.4 mg/kg/min throughout the PET experiment. One venous catheter was inserted for the radioligand injection, and one arterial catheter was inserted to obtain arterial blood samples. Baboons were intubated to facilitate respiration, and circulatory volume was maintained by constant infusion of isotonic saline. Physiological vital signs including heart rate, blood pressure, electrocardiogram, and oxygen saturation were monitored continuously throughout the study.
The animals were positioned in the PET scanner with the head immobilized using a thermoplastic mask. […] The 90-min dynamic PET acquisition was then started in three-dimensional list mode simultaneously with an intravenous bolus injection of [^18F]FNDP. […]
Next, kinetic modeling was performed based on the TACs and the metabolite-corrected arterial plasma input functions. For brain uptake, the primary outcome measure was the regional brain distribution volume (VT) of [^18F]FNDP, defined as concentration of the radiotracer in regional tissue relative to that in blood at equilibrium. We evaluated which compartmental models (e.g., two-tissue-three-compartment (2TCM) or one-tissue-two-compartment (1TCM)) best described the [^18F]FNDP PET data, using statistical model selection criteria, such as the Akaike information criterion. For comparison, the Logan graphical method (t* = 30 min) was also used to compute regional VT, as well as generating voxel-wise parametric images of VT [31].
For blocking studies, occupancy of sEH by FNDP was calculated using regional VT values as Eq 1 Occupancy=ΔVT/VTBaseline−VND,
where VND, the distribution volume of non-displaceable radioligand, was obtained from the Lassen plot, i.e., using a scatterplot of ΔVT (i.e., baseline VT minus post-blocking VT) versus baseline VT of all regions. […] When that condition was satisfied, VND was given as the intercept of the regression line with the X-axis. The non-displaceable binding potential (BPND) was computed as VT /VND − 1.

[4] = design: method as in PMID 27417650; conditions: mouse brain; cited from earlier work
[5] = design: method as in PMID 27417650; conditions: baboon brain; cited from earlier work

O=C(NCCC(c1ccccc1)c1ccccc1)c1ccc([18F])nc1 [[^18F]FNDP, N-(3,3-diphenylpropyl)-6-^18F-fluoronicotinamide]
fraction of radioactivity by HPLC (Met-1, Met-2, parent) ([1]; Mouse blood (10 min)): 63.4 ± 4.4% | fraction of radioactivity by HPLC (Met-1, Met-2, parent) ([1]; Mouse blood (30 min)): 50.1 ± 10.5% | fraction of radioactivity by HPLC (Met-1, Met-2, parent) ([1]; Mouse brain (10 min)): 99.2 ± 0.3% | fraction of radioactivity by HPLC (Met-1, Met-2, parent) ([1]; Mouse brain (30 min)): 98.3 ± 0.3% | fraction of radioactivity by HPLC (Met-1, Met-2, parent) ([2]; Baboon blood (10 min)): 77.0 ± 3.6% | fraction of radioactivity by HPLC (Met-1, Met-2, parent) ([2]; Baboon blood (30 min)): 46.5 ± 6.4% | fraction of radioactivity by HPLC (Met-1, Met-2, parent) ([2]; Baboon blood (60 min)): 28.3 ± 9.3% | fraction of radioactivity by HPLC (Met-1, Met-2, parent) ([2]; Baboon blood (90 min)): 21.8 ± 7.0% | suggested fraction of brain radioactivity that is parent ([2]; baboon brain, extrapolated): > 95% | K1 (2TCM) ([3]; 0.02-mg/kg AR-9281 blocking scan, Baboon3): 0.170 ± 0.021 mL/cm^3/min | K1 (2TCM) ([3]; 0.1-mg/kg AR-9281 blocking scan, Baboon3): 0.179 ± 0.026 mL/cm^3/min | K1 (2TCM) ([3]; 1-mg/kg AR-9281 blocking scan, Baboon3): 0.166 ± 0.032 mL/cm^3/min | VND (distribution volume of non-displaceable radioligand) ([3]; Lassen plot, AR-9281 blocking scans, Baboon3): 0.865 ± 0.066 mL/mL | specific binding (binding specificity) ([3]; baboon brain): 91.70 ± 1.74% | total distribution volume (VT) ([3]; male, baboon (Papio anubis), brain, intravenous, read-out: high-dose blocking VT): 1 ± 0.09 | brain uptake, injected dose per gram of tissue [4]: 5 % ID/g | brain uptake, standardized uptake value (SUV) [5]: 4
